According to patent US8623911B2, “Boron-containing small molecules as anti-protozoal agent” (Anacor Pharmaceuticals, Inc., priority 2010, dated 2014):
Where two headings read alike, the source gives them in different places.

Assays:
[1] = system: LAB 110 Eatro strain of T. b. brucei; assay: Acute Murine Model A [Murine Stage 1 HAT]; type: in vivo
Procedure: Female Swiss Webster mice were inoculated with 250,000 parasites of the LAB 110 Eatro strain of T. b. brucei. 24 hrs post-infection, treatment was initiated by administration of a compound of the invention BID for 4 days with 20 mg/kg/dose (40 mg/kg/day) intraperitoneally (IP) or orally (PO), 5 mg/kg BID or 10 mg/kg BID orally (PO). 3 mice per group were treated with a particular compound of the invention. Mice were checked for parasitemia weekly by microscopic examination of smears prepared from tail vein blood. Animals remaining parasite free for more than 30 days beyond the end of the treatment period were considered cured. Control untreated animals typically succumbed to the infection within 4-5 days following i.p. inoculation with parasites. Mice were monitored for 30 days for survival. Pentamidine at 2 mg/kg IP was used as the positive control. After 10 days, 0% of the untreated mice were parasite free. After 10 days, 67% of mice treated PO with 10 mg/kg BID of N-(1-Hydroxy-3,4-dihydro-1H-benzo[c][1,2]oxaborinin-7-yl)-4-methoxy-benzamide (M19) were parasite free. After 30 days, 100% of mice treated PO with 10 mg/kg BID of 4-fluoro-N-(1-hydroxy-3,4-dihydro-1H-benzo[c][1,2]oxaborinin-7-yl)-2-trifluoromethyl-benzamide (M1) were parasite free.

[2] = Pharmacokinetic studies in mice (plasma and brain, IV and oral gavage); type: in vivo, male CD-1 mice; settings: for AUC(0-t) / clearance / AUC(0-inf) / Vd / CL/F / half-life: male, CD-1, mouse; for AUC(0-t): read-out: Exposure/trapezoid AUC0-last; for clearance: read-out: Clearance Cl (converted); for AUC(0-inf): read-out: Exposure/trapezoid AUC0-inf; for Vd: read-out: Vdss; for CL/F: read-out: Oral Clearance Cl/F (converted); for half-life: read-out: t½ (converted); for Cmax: mouse, male CD-1 mice
Procedure: Male CD-1 mice weighing approximately 20 to 30 g received the test article M1 by either intravenous (IV) or oral gavage (OG) routes. Animals in the IV group (11 animals, 1 per time point) received a single bolus injection at a nominal dose level of 2 mg/kg of the test article. Animals receiving oral doses were administered the test article as a single OG dose (10 animals per dose level, 1 per time point) at nominal dose levels of 25 and 50 mg/kg. IV doses were administered as a solution in 5% (w/v) dextrose in sterile water for injection. OG doses at 25 and 50 mg/kg were administered as suspensions in 5% (w/v) dextrose in sterile water for injection and as in situ sodium salts in 5% (m/v) dextrose: 2% (v/v) ethanol in DWI, respectively. All dose solutions were delivered at 4 mL/kg. Animals receiving the IV dose at 2 mg/kg or the OG dose at 25 mg/kg were not fasted. Animals receiving the OG dose at 50 mg/kg were fasted for 4 hours before dosing and for 1 hour after dosing. Blood and brain tissue were collected from 1 animal/timepoint/group at 0.17, 0.5, 1, 2, 3, 4, 6, 8, 12, 18 and 24 hr after IV dosing, and at 0.5, 1, 2, 3, 4, 6, 8, 12, 18 and 24 hr after OG dosing. Whole blood samples were processed completely to plasma following collection. Plasma and brain tissue were submitted to bioanalysis to determine pharmacokinetic parameters and test article CNS disposition. Plasma and brain tissue from non-dosed animals were collected to serve as surrogate pre-dose samples. Bioanalysis for test article in plasma and brain tissue was performed by HPLC with tandem mass spectrometry (LC-MSMS). Plasma samples were treated with 4 volumes of 0.5% formic acid in methanol to precipitate plasma proteins. Treated samples were centrifuged and supernatants removed for analysis. Brain tissues were massed and homogenized mechanically in the presence of 1 volume of phosphate-buffered saline (PBS). The resulting tissue homogenates were then diluted with a further volume of PBS, and then treated in the same manner as plasma. Extracted samples were assayed for test article by means of LC-MSMS employing reversed-phase chromatography coupled to a triple quadrupole mass spectrometer employing electrospray ionization in the positive ion mode. The analytical column was a Phenomenex Luna 3μ C8 50×2 mm, with an online sample purification step performed on a Phenomenex Synergi 4μ Polar RP 50×2 mm column. Test articles were eluted using a binary mobile phase gradient comprising 5 mM Ammonium Acetate: 0.1% formic acid in either MeOH or H2O. Non-compartmental analysis of plasma test article concentration versus time was performed in Microsoft Excel to generate pharmacokinetic parameters including: area under the curve (AUC), clearance (as Cl or Cl/F), volume of distribution (Vdss), half-life (t½), and bioavailability (F).

[3] = oral delivery to mice, 25 and 50 mg/kg

In the case of `O=C(Nc1ccc2c(c1)B(O)OCC2)c1ccc(F)cc1C(F)(F)F` [M1, 4-Fluoro-N-(1-hydroxy-3,4-dihydro-1H-benzo[c][1,2]oxaborinin-7-yl)-2-trifluoromethyl-benzamide], the “mice parasite free after 30 days” value ([1]; female Swiss Webster mice, PO 10 mg/kg BID for 4 days, after 30 days) is reported as 100%, the “Mean Survival Days” value ([1]; mice infected with T. b. brucei, 10 mg/kg, BID, orally, 4 days) is reported as 30 days and the “period brain concentrations are maintained above the MIC” value ([2]; OG dosing at 25 mg/kg) is reported as “approximately 5 hours”. The “period brain concentrations are maintained above the MIC” value ([2]; OG dosing at 50 mg/kg) was ~10 h, the AUC(0-t) ([2]; brain, IV 2 mg/kg, last = 12 hours) was 700 ng·h/mL and the clearance ([2]; brain, IV 2 mg/kg) was 42.3 mL/min/kg. It also gave an AUC(0-inf) ([2]; brain, IV 2 mg/kg) of 890 ng·h/mL, a Vd ([2]; brain, IV 2 mg/kg) of 17.1 L/kg and an AUC(0-t) ([2]; brain, oral 25 mg/kg, last = 12 hours) of 14300 ng·h/mL. It also gave an AUC(0-inf) ([2]; brain, oral 25 mg/kg) of 14400 ng·h/mL, a CL/F ([2]; brain, oral 25 mg/kg) of 29.2 mL/min/kg and an AUC(0-t) ([2]; brain, oral 50 mg/kg, last = 12 hours) of 22900 ng·h/mL. The AUC(0-inf) ([2]; brain, oral 50 mg/kg) was 24700 ng·h/mL, the CL/F ([2]; brain, oral 50 mg/kg) was 36.5 mL/min/kg and the AUC(0-t) ([2]; plasma, IV 2 mg/kg, last = 24 hours) was 1580 ng·h/mL. The clearance ([2]; plasma, IV 2 mg/kg) was 27.8 mL/min/kg, the AUC(0-inf) ([2]; plasma, IV 2 mg/kg) was 1610 ng·h/mL and the Vd ([2]; plasma, IV 2 mg/kg) was 5 L/kg. The half-life ([2]; plasma, IV 2 mg/kg) was 413 min, the AUC(0-t) ([2]; plasma, oral 25 mg/kg, last = 24 hours) was 6390 ng·h/mL and the AUC(0-inf) ([2]; plasma, oral 25 mg/kg) was 6460 ng·h/mL. For the same molecule, the CL/F ([2]; plasma, oral 25 mg/kg) was 64.5 mL/min/kg, the half-life ([2]; plasma, oral 25 mg/kg) was 317 min and the AUC(0-t) ([2]; plasma, oral 50 mg/kg, last = 24 hours) was 81400 ng·h/mL. For the same molecule, the AUC(0-inf) ([2]; plasma, oral 50 mg/kg) was 83400 ng·h/mL, the CL/F ([2]; plasma, oral 50 mg/kg) was 10.2 mL/min/kg and the Cmax ([2]; brain, oral 25 mg/kg) was 5840 ng/mL. The Cmax ([2]; brain, oral 50 mg/kg) was 4210 ng/mL, the Cmax ([2]; plasma, oral 25 mg/kg) was 2230 ng/mL and the Cmax ([2]; plasma, oral 50 mg/kg) was 13400 ng/mL. For the same molecule, the “dose proportionality of brain exposure” value [2, 3] was “approximately proportional”, the “dose proportionality of plasma exposure” value [2, 3] was “superproportional increase” and the “period for which brain:plasma ratio is greater than unity” value ([2]; oral dose of 25 mg/kg) was “approximately 4 hours”. For the same molecule, the “brain:plasma ratio” value ([2]; oral dose of 25 mg/kg, for approximately 4 hours following dosing) was “greater than unity” and the “F (% of IV)” value ([2]; plasma, oral 25 mg/kg) was 43.2 % of IV.
